The results in this text go back to ChEMBL document CHEMBL6109068, “Design, synthesis, and biological evaluation of 5'-deoxy (N)-methanocarbanucleoside derivatives as A3 adenosine receptor ligands” (Bioorg Med Chem Lett, 2025).

The target in assay [1] is T1, Adenosine receptor A3 (Homo sapiens) (UniProt P0DMS8).
T1 sequence (whole entry): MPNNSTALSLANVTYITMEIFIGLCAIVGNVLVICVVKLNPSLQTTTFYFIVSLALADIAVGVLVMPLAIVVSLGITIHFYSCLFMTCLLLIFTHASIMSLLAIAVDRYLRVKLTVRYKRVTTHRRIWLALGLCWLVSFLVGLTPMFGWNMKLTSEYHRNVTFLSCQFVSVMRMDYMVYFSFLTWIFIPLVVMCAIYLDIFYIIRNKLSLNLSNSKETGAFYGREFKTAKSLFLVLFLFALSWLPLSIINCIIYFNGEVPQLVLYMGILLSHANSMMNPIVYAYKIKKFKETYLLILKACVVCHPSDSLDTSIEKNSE
Description: Displacement of [3H]-NECA from human A3AR stably expressed in HeLa cell membrane at 10 uM relative to control. It counts as cell membranes. For orientation: Loss of bound radioactivity is the signal in a displacement assay; it reports binding, not function.

Another assay has as its target T2, Adenosine receptor A3 (Homo sapiens, UniProt P0DMS8).
T2 sequence (P0DMS8 whole entry): T1 sequence (whole entry)
Nature of the assay: Displacement of [3H]-NECA from human A3AR stably expressed in HeLa cell membrane. It counts as cell membranes.

As usually defined, the inhibition is the change of the read-out against control, counted positive when it falls. Low values mean little suppression, high ones strong suppression. `C[C@]12C[C@@H]1[C@@H](n1cnc3c(N)nc(Cl)nc31)[C@H](O)[C@@H]2O` showed an inhibition in assay [1] of 89%.
For orientation: Ki means the equilibrium dissociation constant of an inhibitor or competing ligand from its target. Regarding `C[C@]12C[C@@H]1[C@@H](n1cnc3c(NCc4cccc(Cl)c4)ncnc31)[C@H](O)[C@@H]2O`, the Ki at Adenosine receptor A3 is 0.0703 µM.
For `C[C@]12C[C@@H]1[C@@H](n1cnc3c(NCc4cccc(F)c4)nc(Cl)nc31)[C@H](O)[C@@H]2O`, on Adenosine receptor A3, the Ki turned out to be 0.124 µM.
